Like-named read-outs stand apart in the source and are kept apart here. Square brackets hold non-standard residues; d marks the D form. Ends that are not written are not given here. Peptide text beside a SMILES is read from it. 12Ado = NCCCCCCCCCCCC(=O)O; Orn = NCCC[C@H](N)C(=O)O; Dab = NCC[C@H](N)C(=O)O; Aoc = NCCCCCCCC(=O)O
Columns and labels:
[1] = system: mouse RAW 264.7 cells incubated with E. coli O113 LPS; details: RAW 264.7 cells with E. coli O113 LPS; concentration reversing LPS growth inhibition by 50%
Procedure: (§1) An in vitro LPS neutralization screening assay for evaluation of Domain III derived peptides was developed (as described in co-owned and co-pending U.S. patent application Ser. No. 08/306,473) which provides both a measure of efficacy of each peptide (EC50) and of the toxicity/growth inhibition of each peptide (IC50).
(§2) The cells were counted and their concentration adjusted to 2×10^5 cells/mL and 100 μL aliquots were added to each well of a 96-well microtitre plate. […] This incubation was performed in the absence or presence of peptides in varying concentrations between 25 ng/mL and 50 μg/mL. […] Cell proliferation was quantitatively measured by the addition of 1 μCi/well [^3H]-thymidine 5 hours after the time of initiation of the assay. After the 15-hour incubation, labeled cells were harvested onto glass fiber filters with a cell harvester (Inotech Biosystems, INB-384, Sample Processing and Filter Counting System, Lansing, Mich.).

[2] = system: mouse RAW 264.7 cells
Procedure: as §1, §2

[3] = RAW 264.7 cell growth inhibited by 50%

Row | Compound | In Vitro LPS Neutralization EC50 [1] | IC50 (toxicity/growth inhibition of peptide) [2, 3] | IC50 (toxicity/growth inhibition of peptide) [2] [µg/mL]
1 | CC[C@H](C)[C@H](NC(=O)[C@H](CC(C)C)NC(=O)[C@@H](Cc1c[nH]c2ccccc12)NC(=O)[C@@H](CCCCN)NC(C)=O)C(=O)N[C@@H](CCC(N)=O)C(=O)N[C@@H](CC(C)C)C(=O)N[C@@H](Cc1ccccc1)C(=O)N[C@@H](Cc1c[nH]cn1)C(=O)N[C@H](CCCCN)C(=O)N[C@H](CCCCN)C(N)=O [XMP.364P] | >25 µg/mL | NA (NA for IC50 means no evidence of decreased RAW cell growth at up to 50 μg/ml) | 
2 | CC[C@@H](C)[C@@H](NC(=O)[C@@H](CCC(N)=O)NC(=O)[C@@H](CC(C)C)NC(=O)[C@@H](Cc1ccccc1)NC(=O)[C@@H](Cc1c[nH]cn1)NC(=O)[C@@H](CCCCN)NC(=O)[C@@H](CCCCN)NC(C)=O)C(=O)N[C@H](CC(C)C)C(=O)N[C@H](Cc1c[nH]c2ccccc12)C(=O)N[C@H](CCCCN)C(N)=O [XMP.368P] | 1.95 ± 0.11 µg/mL |  | >25
3 | CC[C@H](C)[C@H](NC(=O)[C@H](CC(C)C)NC(=O)[C@H](Cc1c[nH]c2ccccc12)NC(=O)[C@@H](N)CCCCN)C(=O)N[C@@H](CCCN)C(=O)N[C@@H](CC(C)C)C(=O)N[C@@H](Cc1ccccc1)C(=O)N[C@@H](Cc1c[nH]cn1)C(=O)N[C@@H](CCCCN)C(=O)N[C@@H](CCCCN)C(N)=O [XMP.369P] (H-KWLI[Orn]LFHKK-NH2) | 12.09 ± 0.43 µg/mL | NA (NA for IC50 means no evidence of decreased RAW cell growth at up to 50 μg/ml) | 
4 | CC[C@H](C)[C@H](NC(=O)[C@H](CC(C)C)NC(=O)[C@H](Cc1c[nH]c2ccccc12)NC(=O)[C@H](CCCCN)NC(C)=O)C(=O)N[C@@H](CCCN)C(=O)N[C@@H](CC(C)C)C(=O)N[C@@H](Cc1ccccc1)C(=O)N[C@@H](Cc1c[nH]cn1)C(=O)N[C@@H](CCCCN)C(=O)N[C@@H](CCCCN)C(N)=O [XMP.370P] (Ac-KWLI[Orn]LFHKK-NH2) | NA (NA for EC50 means no evidence neutralization of LPS at up to 50 μg/ml) |  | >25
5 | CC[C@H](C)[C@H](NC(=O)[C@H](CC(C)C)NC(=O)[C@H](Cc1c[nH]c2ccccc12)NC(=O)[C@@H](N)CCCCN)C(=O)N[C@@H](CCN)C(=O)N[C@@H](CC(C)C)C(=O)N[C@@H](Cc1ccccc1)C(=O)N[C@@H](Cc1c[nH]cn1)C(=O)N[C@@H](CCCCN)C(=O)N[C@@H](CCCCN)C(N)=O [XMP.371P] (H-KWLI[Dab]LFHKK-NH2) | NA (NA for EC50 means no evidence neutralization of LPS at up to 50 μg/ml) |  | >25
6 | CC[C@H](C)[C@H](NC(=O)[C@H](CC(C)C)NC(=O)[C@H](Cc1c[nH]c2ccccc12)NC(=O)[C@H](CCCCN)NC(C)=O)C(=O)N[C@@H](CCN)C(=O)N[C@@H](CC(C)C)C(=O)N[C@@H](Cc1ccccc1)C(=O)N[C@@H](Cc1c[nH]cn1)C(=O)N[C@@H](CCCCN)C(=O)N[C@@H](CCCCN)C(N)=O [XMP.372P] (Ac-KWLI[Dab]LFHKK-NH2) | >25 µg/mL |  | >25
7 | CC[C@@H](C)[C@@H](NC(=O)[C@@H](CCC(N)=O)NC(=O)[C@@H](CC(C)C)NC(=O)[C@H](N)CCCCN)C(=O)N[C@H](CC(C)C)C(=O)N[C@H](Cc1c[nH]c2ccccc12)C(=O)N[C@H](CCCCN)C(=O)N[C@H](CCCCN)C(N)=O [XMP.374P] | 13.97 ± 2.02 µg/mL | NA (NA for IC50 means no evidence of decreased RAW cell growth at up to 50 μg/ml) | 
8 | CC[C@@H](C)[C@@H](NC(=O)[C@@H](C)NC(=O)[C@@H](Cc1c[nH]c2ccccc12)NC(=O)[C@@H](CCCCN)NC(=O)[C@H](N)CCCCN)C(=O)N[C@H](CCC(N)=O)C(=O)N[C@H](CC(C)C)C(=O)N[C@H](CCCCN)C(=O)N[C@H](CCCCN)C(N)=O [XMP.375P] (H-[dK][dK][dW][dA][dI][dQ][dL][dK][dK]-NH2) | >50 µg/mL | NA (NA for IC50 means no evidence of decreased RAW cell growth at up to 50 μg/ml) | 
9 | CC[C@@H](C)[C@@H](NC(=O)[C@@H](CCC(N)=O)NC(=O)[C@@H](CC(C)C)NC(=O)[C@@H](CCCCN)NC(=O)[C@H](N)CCCCN)C(=O)N[C@H](C)C(=O)N[C@H](Cc1c[nH]c2ccccc12)C(=O)N[C@H](CCCCN)C(=O)N[C@H](CCCCN)C(N)=O [XMP.376P] (H-[dK][dK][dL][dQ][dI][dA][dW][dK][dK]-NH2) | >50 µg/mL | NA (NA for IC50 means no evidence of decreased RAW cell growth at up to 50 μg/ml) | 
10 | CC[C@H](C)[C@@H]1NC(=O)[C@H](C)NC(=O)[C@H](Cc2c[nH]c3ccccc23)NC(=O)[C@H](CCCCN)NC(=O)[C@H](CCCCN)NC(=O)[C@H](CCCCN)NC(=O)[C@H](CC(C)C)NC(=O)[C@H](CCC(N)=O)NC1=O [XMP.408P] (cyclo(LKKKWAIQ)) | NA (NA for EC50 means no evidence neutralization of LPS at up to 50 μg/ml) | NA (NA for IC50 means no evidence of decreased RAW cell growth at up to 50 μg/ml) | 
11 | CCCCCCCC(=O)N[C@H](CCCCN)C(=O)N[C@H](Cc1c[nH]c2ccccc12)C(=O)N[C@H](CC(C)C)C(=O)N[C@@H](C(=O)N[C@H](CCC(N)=O)C(=O)N[C@H](CC(C)C)C(=O)N[C@H](Cc1ccccc1)C(=O)N[C@H](Cc1c[nH]cn1)C(=O)N[C@H](CCCCN)C(=O)N[C@H](CCCCN)C(N)=O)[C@H](C)CC [XMP.414] | 1.91 ± 0.04 µg/mL | 10.96 ± 0.52 µg/mL | 
12 | CCCCCCCCCCCC(=O)N[C@H](CCCCN)C(=O)N[C@H](Cc1c[nH]c2ccccc12)C(=O)N[C@H](CC(C)C)C(=O)N[C@@H](C(=O)N[C@H](CCC(N)=O)C(=O)N[C@H](CC(C)C)C(=O)N[C@H](Cc1ccccc1)C(=O)N[C@H](Cc1c[nH]cn1)C(=O)N[C@H](CCCCN)C(=O)N[C@H](CCCCN)C(N)=O)[C@H](C)CC [XMP.415] | 1.61 ± 0.03 µg/mL |  | 6.80 ± 0.14
13 | CC[C@@H](C)[C@@H](NC(=O)[C@@H](CC(C)C)NC(=O)[C@@H](Cc1c[nH]c2ccccc12)NC(=O)[C@@H](CCCCN)NC(=O)CCCCCCCN)C(=O)N[C@H](CCC(N)=O)C(=O)N[C@H](CC(C)C)C(=O)N[C@H](Cc1ccccc1)C(=O)N[C@H](Cc1c[nH]cn1)C(=O)N[C@H](CCCCN)C(=O)N[C@H](CCCCN)C(N)=O [XMP.416] (H-[Aoc][dK][dW][dL][dI][dQ][dL][dF][dH][dK][dK]-NH2) | 4.67 ± 0.27 µg/mL | 24.41 ± 0.78 µg/mL | 
14 | CC[C@@H](C)[C@@H](NC(=O)[C@@H](CC(C)C)NC(=O)[C@@H](Cc1c[nH]c2ccccc12)NC(=O)[C@@H](CCCCN)NC(=O)CCCCCCCCCCCN)C(=O)N[C@H](CCC(N)=O)C(=O)N[C@H](CC(C)C)C(=O)N[C@H](Cc1ccccc1)C(=O)N[C@H](Cc1c[nH]cn1)C(=O)N[C@H](CCCCN)C(=O)N[C@H](CCCCN)C(N)=O [XMP.417] (H-[12Ado][dK][dW][dL][dI][dQ][dL][dF][dH][dK][dK]-NH2; C-terminus assumed) | 3.88 ± 0.20 µg/mL |  | 11.26 ± 1.30
15 | Ac-PWLIQLFHKK-NH2 [XMP.356P] | 2.72 ± 0.02 µg/mL |  | >25
16 | GWLIQLFHKK-NH2 [XMP.388P] | 8.08 ± 1.52 µg/mL | NA (NA for IC50 means no evidence of decreased RAW cell growth at up to 50 μg/ml) | 
17 | H-HHWLIQLHH-NH2 [XMP 337P] | >50 µg/mL | NA (NA for IC50 means no evidence of decreased RAW cell growth at up to 50 μg/ml) | 
18 | H-KKLLLLLKK-NH2 [XMP.385P] | 2.56 ± 0.23 µg/mL |  | >25
19 | H-KKLLLQLKK-NH2 [XMP.383P] | NA (NA for EC50 means no evidence neutralization of LPS at up to 50 μg/ml) | NA (NA for IC50 means no evidence of decreased RAW cell growth at up to 50 μg/ml) | 
20 | H-KKLLQLLKK-NH2 [XMP.382P] | NA (NA for EC50 means no evidence neutralization of LPS at up to 50 μg/ml) | NA (NA for IC50 means no evidence of decreased RAW cell growth at up to 50 μg/ml) | 
21 | H-KKLQLLLKK-NH2 [XMP.381P] | NA (NA for EC50 means no evidence neutralization of LPS at up to 50 μg/ml) | NA (NA for IC50 means no evidence of decreased RAW cell growth at up to 50 μg/ml) | 
22 | H-KKQLLLLKK-NH2 [XMP.380P] | NA (NA for EC50 means no evidence neutralization of LPS at up to 50 μg/ml) | NA (NA for IC50 means no evidence of decreased RAW cell growth at up to 50 μg/ml) | 
23 | H-KKWLIQAKK-NH2 [XMP.345P] | >50 µg/mL | NA (NA for IC50 means no evidence of decreased RAW cell growth at up to 50 μg/ml) | 
24 | H-KKWLIQLFHKK-NH2 [XMP.352P] | 2.34 ± 0.38 µg/mL | NA (NA for IC50 means no evidence of decreased RAW cell growth at up to 50 μg/ml) | 
25 | H-KPWLIQLFHKK-NH2 [XMP.390P] | 3.97 ± 0.21 µg/mL | NA (NA for IC50 means no evidence of decreased RAW cell growth at up to 50 μg/ml) | 
26 | H-KSKVPWLIQLFHKK-NH2 [XMP.393P] | >25 µg/mL | NA (NA for IC50 means no evidence of decreased RAW cell growth at up to 50 μg/ml) | 
